Assay: Tested for inhibitory activity against Beta-glucosidase from Agrobacterium species

Ki [nM]	Compound
100	CCCCCCCCCCCC(=O)NC[C@H]1N[C@H](CO)[C@H](O)[C@@H]1O [Dodecanoic acid ((3S,4S,5R)-3,4-dihydroxy-5-hydroxymethyl-pyrrolidin-2-ylmethyl)-amide]
1.2	CCN(CC)c1ccc2cc(C(=O)NC[C@H]3N[C@H](CO)[C@H](O)[C@@H]3O)c(=O)oc2c1 [7-Diethylamino-2-oxo-2H-chromene-3-carboxylic acid ((R)-(3R,5S)-3,4-dihydroxy-5-hydroxymethyl-pyrrolidin-2-ylmethyl)-amide]
150	O=C(CCc1ccccc1)NC[C@@H]1N[C@H](CO)[C@H](O)[C@@H]1O [N-((3S,4S,5R)-3,4-Dihydroxy-5-hydroxymethyl-pyrrolidin-2-ylmethyl)-3-phenyl-propionamide]
550	O=C(NC[C@H]1N[C@H](CO)[C@H](O)[C@@H]1O)c1cccc2ccccc12 [Naphthalene-1-carboxylic acid ((3S,4S,5R)-3,4-dihydroxy-5-hydroxymethyl-pyrrolidin-2-ylmethyl)-amide]
